Assay results: ChEMBL document CHEMBL1131854, “Design, synthesis and antimuscarinic activity of some imidazolium derivatives” (Bioorg Med Chem Lett, 1999)

Each compound was assayed against Muscarinic acetylcholine receptor M3 (Cavia porcellus) (UniProt Q8VH26) (assay: Antimuscarinic activity against muscarinic acetylcholine M3-receptor in guinea pig ileum). Conditions: not given.
Sequence of Muscarinic acetylcholine receptor M3 (Cavia porcellus) (Q8VH26 1-587): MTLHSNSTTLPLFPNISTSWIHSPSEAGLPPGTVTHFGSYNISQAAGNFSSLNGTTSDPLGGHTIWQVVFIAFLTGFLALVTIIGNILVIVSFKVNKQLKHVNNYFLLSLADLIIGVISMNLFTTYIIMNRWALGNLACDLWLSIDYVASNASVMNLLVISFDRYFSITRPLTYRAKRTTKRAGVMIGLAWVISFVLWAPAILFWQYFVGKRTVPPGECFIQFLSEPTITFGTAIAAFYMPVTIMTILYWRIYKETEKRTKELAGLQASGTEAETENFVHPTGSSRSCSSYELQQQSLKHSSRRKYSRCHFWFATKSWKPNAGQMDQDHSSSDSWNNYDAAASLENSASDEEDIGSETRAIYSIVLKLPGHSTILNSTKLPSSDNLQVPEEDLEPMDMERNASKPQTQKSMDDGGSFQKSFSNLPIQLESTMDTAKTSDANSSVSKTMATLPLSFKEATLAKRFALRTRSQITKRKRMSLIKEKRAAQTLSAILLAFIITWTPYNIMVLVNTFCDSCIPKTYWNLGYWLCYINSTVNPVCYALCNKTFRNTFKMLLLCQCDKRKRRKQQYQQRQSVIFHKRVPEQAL
Assay type: tissue-based
For `Cc1n(CCC(C(N)=O)(c2ccccc2)c2ccccc2)cc[n+]1Cc1cccc(Cl)c1`, the Kb was 5.62 nM.
With `Cc1n(CCC(C(N)=O)(c2ccccc2)c2ccccc2)cc[n+]1Cc1ccccc1` the Kb was 4.96 nM.
In the case of `Cc1n(CCC(C(N)=O)(c2ccccc2)c2ccccc2)cc[n+]1Cc1ccc(Br)cc1`, the Kb is reported as 0.117 nM.
`CCC[n+]1ccn(CCC(C(N)=O)(c2ccccc2)c2ccccc2)c1C` gave a Kb of 4.07 nM.
`Cc1n(CCCCC(C(N)=O)(c2ccccc2)c2ccccc2)cc[n+]1Cc1ccccc1` gave a Kb of 0.756 nM.
Work on `Cc1ccccc1C[n+]1ccn(CCC(C(N)=O)(c2ccccc2)c2ccccc2)c1C` yielded a Kb of 21.1 nM.
In the case of `Cc1n(CCC(C(N)=O)(c2ccccc2)c2ccccc2)cc[n+]1Cc1ccccc1Cl`, the Kb is reported as 11.8 nM.
`CCCC[n+]1ccn(CCC(C(N)=O)(c2ccccc2)c2ccccc2)c1C` gave a Kb of 3.12 nM.
Work on `CC[n+]1ccn(CCC(C(N)=O)(c2ccccc2)c2ccccc2)c1C` yielded a Kb of 7.11 nM.
`Cc1n(CCCC(C(N)=O)(c2ccccc2)c2ccccc2)cc[n+]1Cc1ccccc1` showed a Kb of 0.639 nM.
For `Cc1cccc(C[n+]2ccn(CCC(C(N)=O)(c3ccccc3)c3ccccc3)c2C)c1`, the Kb was 2.52 nM.
`Cc1n(CCC(C(N)=O)(c2ccccc2)c2ccccc2)cc[n+]1C` gave a Kb of 3.78 nM.
In the case of `Cc1n(CCC(C(N)=O)(c2ccccc2)c2ccccc2)cc[n+]1Cc1ccc(-c2ccccc2)cc1`, the Kb is reported as 1.24 nM.
In the case of `CCCc1n(CCC(C(N)=O)(c2ccccc2)c2ccccc2)cc[n+]1C`, the Kb is reported as 12.5 nM.
`CCc1n(CCC(C(N)=O)(c2ccccc2)c2ccccc2)cc[n+]1C` showed a Kb of 1.14 nM.
In the case of `Cc1n(CCC(C(N)=O)(c2ccccc2)c2ccccc2)cc[n+]1Cc1ccc([N+](=O)[O-])cc1`, the Kb is reported as 0.858 nM.
`Cc1n(CCC(C(N)=O)(c2ccccc2)c2ccccc2)cc[n+]1Cc1ccc(Cl)cc1` gave a Kb of 0.647 nM.
`Cc1ccc(C[n+]2ccn(CCC(C(N)=O)(c3ccccc3)c3ccccc3)c2C)cc1` showed a Kb of 1.02 nM.

What follows are compounds tested against Muscarinic acetylcholine receptors; M2 & M3 (Homo sapiens) (UniProt P20309+P08172) (assay: Selectivity ratio between Kb values of M2-receptor (atria) and M3-receptor (ileum)). Conditions: Cavia porcellus.
Assay type: tissue-based
`Cc1n(CCC(C(N)=O)(c2ccccc2)c2ccccc2)cc[n+]1Cc1cccc(Cl)c1` gave a Ratio of 4.36.
With `Cc1n(CCC(C(N)=O)(c2ccccc2)c2ccccc2)cc[n+]1Cc1ccccc1` the Ratio was 13.5.
With `Cc1nccn1CCCCC(C(N)=O)(c1ccccc1)c1ccccc1` the Ratio was 3.39.
Compound `Cc1n(CCC(C(N)=O)(c2ccccc2)c2ccccc2)cc[n+]1Cc1ccc(Br)cc1` has a Ratio of 22.1.
For `CCCc1nccn1CCC(C(N)=O)(c1ccccc1)c1ccccc1`, the Ratio was 1.44.
`CCC[n+]1ccn(CCC(C(N)=O)(c2ccccc2)c2ccccc2)c1C` gave a Ratio of 3.02.
`Cc1n(CCCCC(C(N)=O)(c2ccccc2)c2ccccc2)cc[n+]1Cc1ccccc1` was tested, and the Ratio was 26.2.
In the case of `NC(=O)C(CCn1ccnc1)(c1ccccc1)c1ccccc1`, the Ratio is reported as 13.5.
With `Cc1ccccc1C[n+]1ccn(CCC(C(N)=O)(c2ccccc2)c2ccccc2)c1C` the Ratio was 2.24.
`Cc1nccn1CCC(C(N)=O)(c1ccccc1)c1ccccc1` gave a Ratio of 13.
Compound `Cc1n(CCC(C(N)=O)(c2ccccc2)c2ccccc2)cc[n+]1Cc1ccccc1Cl` has a Ratio of 5.67.
Work on `CCCC[n+]1ccn(CCC(C(N)=O)(c2ccccc2)c2ccccc2)c1C` yielded a Ratio of 5.83.
`CC[n+]1ccn(CCC(C(N)=O)(c2ccccc2)c2ccccc2)c1C` was tested, and the Ratio was 1.3.
Compound `Cc1nccn1CCCC(C(N)=O)(c1ccccc1)c1ccccc1` has a Ratio of 17.6.
Work on `Cc1n(CCCC(C(N)=O)(c2ccccc2)c2ccccc2)cc[n+]1Cc1ccccc1` yielded a Ratio of 9.94.
For `Cc1cccc(C[n+]2ccn(CCC(C(N)=O)(c3ccccc3)c3ccccc3)c2C)c1`, the Ratio was 4.6.
With `Cc1n(CCC(C(N)=O)(c2ccccc2)c2ccccc2)cc[n+]1C` the Ratio was 1.68.
With `Cc1n(CCC(C(N)=O)(c2ccccc2)c2ccccc2)cc[n+]1Cc1ccc(-c2ccccc2)cc1` the Ratio was 24.8.
`CCCc1n(CCC(C(N)=O)(c2ccccc2)c2ccccc2)cc[n+]1C` gave a Ratio of 1.74.
Work on `CC(C)(C)c1nccn1CCC(C(N)=O)(c1ccccc1)c1ccccc1` yielded a Ratio of 2.45.
`CCc1n(CCC(C(N)=O)(c2ccccc2)c2ccccc2)cc[n+]1C` was tested, and the Ratio was 4.11.
Work on `Cc1n(CCC(C(N)=O)(c2ccccc2)c2ccccc2)cc[n+]1Cc1ccc([N+](=O)[O-])cc1` yielded a Ratio of 5.28.
`CCc1nccn1CCC(C(N)=O)(c1ccccc1)c1ccccc1` showed a Ratio of 3.3.
`Cc1n(CCC(C(N)=O)(c2ccccc2)c2ccccc2)cc[n+]1Cc1ccc(Cl)cc1` was tested, and the Ratio was 9.32.
With `Cc1ccc(C[n+]2ccn(CCC(C(N)=O)(c3ccccc3)c3ccccc3)c2C)cc1` the Ratio was 7.15.
